Measurements taken from patent US5932541A, “Method of adjusting the circadian rhythm of a mammal” (Gruenenthal GmbH, priority 1998, dated 1999).

Legend:
Sprague-Dawley rats = assay: Subacute repeated-dose intravenous toxicity study with four-week recovery
Protocol: Eight nine SPF Slc:SD rats of both sexes (age: four weeks, body weight: 70.0-81.6 g) were purchased from Shizuoka Agriculture Cooperative Association for Laboratory Animals. During a one-week quarantine/acclimation period, the animals were measured for body weight and observed for any general symptoms, and healthy animals showing normal growth were selected and used in the experiment at the age of five weeks.
Males and females were used in five groups (including the control group) of 10 animals/sex, and additional 10 animals/sex ere added to the control, 0.5 mg/kg and 50 mg/kg groups to investigate the reversibility of the toxic effect of the test substance. All these animals were randomized to each group by weight stratification so that the differences in initial mean body weight were within 2% between groups.
This study also included the vehicle control group.
Dosing solutions were prepared by dissolving a weighed amount of the test substance in physiological saline at a concentration of 1 W/V % using a volumetric flask. Lower dosing solutions were obtained by successive 10-fold dilution of the initial solution. The respective dosing solution was repeatedly administered intravenously once daily for 35 days into the tail vein at a rate of 0.2 ml/10 sec. using a 1/4 syringe for injection. The treatment was given at a constant volume of 0.5 ml/100 g body weight in all dose groups, and the control group was treated with physiological saline at the same volume in the same manner.
Clinical signs in all animals were observed daily between two and four hours after dosing according to Irwin's method of comprehensive observational assessment, and the type, severity, onset time and disappearance time of toxic symptoms were recorded. During the recovery period, the clinical observation was performed once daily in the morning in the same manner. The body weight, food consumption and water consumption were measured in all animals three times weekly in the morning throughout the treatment and recovery periods and recorded.

[1] = system: circadian rhythm of hamster wheel running activity; assay: Phase shift of the circadian rhythm of hamster wheel running activity after intraperitoneal injection; format: in vivo, hamster (Mesocricetus auratus)
Protocol: A preliminary study was conducted to determine whether peripherally administered 6-methyl-5-oxo-3-thiomorpholinyl-carbonyl-L-histidyl-L-prolinamide (Montirelin) is capable of phase shifting the circadian rhythm of hamster wheel running activity. Twenty-four male hamsters [Mesocricetus auratus; 8-12 weeks of age; Charles River LAK:LVG(SYR)] were housed individually in cages equipped with running wheels, and food and water freely available. Animals were maintained in light-tight, ventilated cabinets (six cages per cabinet) in which the lighting schedule could be controlled. Each animal's wheel running activity was monitored continuously throughout each experiment using a data acquisition software kit (Chronobiology, Stanford, Calif.).
(§1) Animals were maintained initially in a 14:10 hour light:dark cycle for 7-10 days, then transferred to constant dim red lighting (RR) conditions for the remainder of the experiment (40-60 days). After free-running for 7 days in dim red lighting, animals either received Montirelin or vehicle intraperitoneally. The daily onset of wheel-running activity was defined as circadian time 12 (CT 12), and this time was used as a reference point in determining appropriate circadian injection times. The test animals were divided into eight groups of three animals each, and intraperitoneal injections of the active compound at dosage levels of 10 or 20 mg/kg or of the vehicle alone were administered to respective test groups at circadian time 3 (CT 3) or circadian time 16 (CT 16). The order of injections and time points was randomized. An additional 4 animals maintained in similar lighting conditions were visually observed for two hours post-injection of Montirelin (10 or 20 mg/kg) to determine any overt behavioral effects exerted by this compound. A total of 9 injections were made for each of the eight treatment groups.
Phase shifts in the circadian activity rhythm were determined by measuring the phase difference between eye-fitted lines connecting the onset of activity for a period of ten days before and ten days after an experimental manipulation.

hamsters = assay: Visual observation of overt behavior for two hours post-injection; format: in vivo, hamster (Mesocricetus auratus)
Protocol: as §1

[2] = both sexes, 50 mg/kg, within the range of normal physiological variations
[3] = 20 mg/kg i.p., at both CT 3 and CT 16, individual hamsters

CC1SCC(C(=O)N[C@@H](Cc2c[nH]cn2)C(=O)N2CCC[C@H]2C(N)=O)NC1=O (stereo partly drawn) [Montirelin, 6-methyl-5-oxo-3-thiomorpholinylcarbonyl-L-histidyl-L-prolinamide]
clinical signs: polyuria (Sprague-Dawley rats; 5 mg/kg or higher groups, almost all males and females, peak about one hour after dosing day 0-3, disappearing by day 4-28): transient polyuria | clinical signs: systemic tremor (Sprague-Dawley rats; 50 mg/kg group, both sexes, from day 0, disappearing by day 6 in males, day 4 in females): systemic tremor was observed transiently during the injection | blood biochemical parameters (Sprague-Dawley rats; all treatment groups): No treatment-related abnormalities | gross changes at autopsy (Sprague-Dawley rats; all treatment groups): no treatment-related grossly abnormal changes | histopathology of other organs (light microscopy); liver and kidney (electron microscopy) (Sprague-Dawley rats; all treatment groups): no remarkable changes | histopathology: hypertrophy of serous cells in the submaxillary gland (Sprague-Dawley rats; both sexes of all treatment groups): showed dose-dependency | water consumption (Sprague-Dawley rats; both sexes receiving 5 mg/kg or above, day 2-3 until about week 4): increased | red blood cell count, hemoglobin and hematocrit (Sprague-Dawley rats; [2]): increasing tendency | total white blood cell count (Sprague-Dawley rats; [2]): decreasing tendency | food consumption and body weight, females (Sprague-Dawley rats; females): unremarkable | reversibility of observed changes (Sprague-Dawley rats; four-week recovery after discontinuing administration): All observed changes were reversed | urinary findings (urine volume) (Sprague-Dawley rats; males and females receiving 5 mg/kg or above, week 2 and 5 of treatment): unremarkable except for an increase in urine volume | body weight gain, males (Sprague-Dawley rats; males, particularly 0.5, 5 and 50 mg/kg): suppressed | death (Sprague-Dawley rats; rats, i.v. once daily 35 days, 0.05-50 mg/kg/day, administration and recovery periods): no death occurred | food consumption, males (Sprague-Dawley rats; treated males compared with control males): tended to decrease food consumption | Effects on the Phase of Wheel Running Activity, Group Averages ([1]; 10 mg/kg i.p. at CT 3): 4.3 ± 2.2 min | Effects on the Phase of Wheel Running Activity, Group Averages ([1]; 10 mg/kg i.p. at CT 16): 3.5 ± 2.3 min | Effects on the Phase of Wheel Running Activity, Group Averages ([1]; 20 mg/kg i.p. at CT 3): 5.5 ± 2.4 min | Effects on the Phase of Wheel Running Activity, Group Averages ([1]; 20 mg/kg i.p. at CT 16): 3.1 ± 2.0 min | phase advances in individual hamsters [1, 3]: ≈ 16 min. | phase delays in individual hamsters [1, 3]: ≈ 10 min. | overt behavior versus vehicle (hamsters; 10 mg/kg i.p. at CTs 3 and 16): no differences in overt behavior | overt behavior versus vehicle (hamsters; 20 mg/kg i.p. at both CT 3 and CT 16): clear differences in overt behaviors
